# Measurements reported in patent US7642400B2, “Protein kinase C iota” (Mayo Foundation for Medical Education and Research, priority 2004, dated 2010).
# Test system: Rac1 activity in A549 cells
# Assay: Rac1 activity assay (affinity isolation of GTP-bound Rac1) in A549 cells
# Type: cell-based, human
# Experimental: Rac 1 Activity Assays: Rac1 activity in A549 and H1299 cell transfectants was assessed by affinity isolation of GTP-bound Rac1 using binding domains of PAK as described previously (Sander et al., J. Cell Biol., 143(5):1385-98 (1998)). Briefly, cells were lysed in lysis buffer (50 mM Tris-HCl pH 7.5, 150 mM NaCl, 20 mM MgCl2, 5 mM EGTA, 10% glycerol, 1% Triton X-100, 1% NP-40, 25 mM NaF, 1 mM phenylmethylsulfonyl fluoride, 1 mM sodium orthovanadate, 10 μg/ml leupeptin, 10 μg/ml aprotinin) at 4° C. for 5 min. Cellular debris was removed by centrifugation at 20,000×g for 5 min, and supernatants were transferred to new tubes containing 20 μl of GST-p21-binding domain of PAK1 (PAK1-PBD) coupled to agarose beads (Upstate). An aliquot of each supernatant was reserved to determine total Rac1 and actin expression by immunoblot analysis. Following a 30-minute incubation at 4° C., the agarose beads were collected by centrifugation and washed three times in wash buffer (50 mM Tris-HCl pH 7.5, 150 mM NaCl, 20 mM MgCl2, 5 mM EGTA, 10% glycerol, 1% Triton X-100, 1% NP-40, 25 mM NaF, 1 mM phenylmethylsulfonyl fluoride, 1 mM sodium orthovanadate, 10 μg/ml leupeptin, 10 μg/ml aprotinin). Bound polypeptides were solubilized by the addition of 30 μl of SDS sample buffer, resolved by SDS-PAGE, and subjected to immunoblot analysis for Rac1. An equivalent aliquot of the total cell lysate was subjected to immunoblot analysis to determine total Rac1 expression.
# Rac 1 Activity Assays: A549 cells were incubated with the indicated concentration of ATG for one hour prior to analysis. Rac1 activity in A549 cells was assessed by affinity isolation of GTP-bound Rac1 using binding domains of PAK as described elsewhere (Sander et al., J. Cell Biol., 143:1385-98 (1998)). Briefly, cells were lysed in lysis buffer (50 mM Tris-HCl pH 7.5, 150 mM NaCl, 20 mM MgCl2, 5 mM EGTA, 10% glycerol, 1% Triton X-100, 1% NP-40, 25 mM NaF, 1 mM phenylmethylsulfonyl fluoride, 1 mM sodium orthovanadate, 10 μg/ml leupeptin, and 10 μg/ml aprotinin) at 4° C. for 5 min. […]
compound,measurement,setting,value
OC[C@H]1O[C@H]([S-])[C@H](O)[C@@H](O)[C@@H]1O.[Au+] [Aurothioglucose],Rac1 activity,"A549 cells incubated with ATG for one hour, FIG. 19",decreased Rac1 activity
same,dose dependence of Rac1 activity,"A549 cells, less Rac1 activity as ATG concentrations increased",dose-dependent effect on Rac1 activity
